Measurements published in patent EP4285905A1, “CABERGOLINE OR A PHARMACEUTICALLY ACCEPTABLE SALT OR SOLVATE THEREOF, FOR USE IN PREVENTION OR DELAY OF POST-PREGNANCY BREAST CANCER IN A FEMALE MAMMAL” (Consejo Superior de Investigaciones Cientificas, priority 2022, dated 2023).

Experiments:
[1] = tested on: Brca1/P53-deficient mice; experiment: Caspase 3 immunohistochemistry as a marker of apoptosis in the mammary gland; assay type: in vivo
Source text: Subsequently, the same groups of animals indicated were generated and samples were collected from the mammary glands at 1, 3, 7, 30 and 60 days post-gestation (in non-lactating multiparous) or post-weaning (in lactating multiparous, with and without treatment with cabergoline) (N = 5 mice per group at each time studied).
The left inguinal breast of each mouse was embedded in paraffin for further study. Once removed from the animals, the breasts were fixed in 4% paraformaldehyde (Scharlau FO) for 24 hours and, subsequently, they were kept in 70% ethanol at a temperature of 4 °C, until they were processed in the Comparative Molecular Pathology Service of the Salamanca Cancer Research Center. Tissues were dehydrated by three 1-hour incubations in increasing concentrations of ethanol (60%, 80%, and 100%). Three other 1-hour incubations were carried out in xylol, to replace the dehydrating agent with a substance miscible in paraffin. Finally, three other incubations of 1 hour and 20 minutes were carried out with liquid paraffin, after which blocks were made with a mould suitable for the size of the tissue in a paraffin embedding station. When the paraffin blocks were completely cold, 2-µm-thick sections were made using a rotation microtome (Leica RM2255). […]
To quantify cells positive for Ki-67 or caspase 3, the Leica Application Suite (LAS) V3.7 program was used. […]

[2] = tested on: Brca1/P53-deficient mice; experiment: Indirect estimation of recombinant P53 cells by qPCR of the WT allele (longitudinal cohort); assay type: in vivo; details: tumour-free mammary glands
Protocol: In order to obtain a suspension enriched in mouse mammary epithelial cells, from which we can obtain both RNA and proteins and also maintain acceptable viability, the protocol for obtaining mouse mammary organoids was carried out. Once the mammary glands were removed after performing the necropsy of the mouse, they were mechanically disintegrated by cutting with two scalpels. Subsequently, they were incubated in a volume of 10 mL of supplemented medium (DMEM/F12 (50%/50%), 5% fetal bovine serum, 1% penicillin/streptomycin) plus 1.25 mL of collagenase, and 1 mL of trypsin. This enzymatic digestion was carried out for 30 minutes at 37 °C in orbital agitation at 100 revolutions per minute (rpm) (= 1.666 s^-1). […]
DNA was extracted from frozen organoids obtained from mammary glands at 30 and 60 days of involution, and from tumour-free mammary glands of mice that developed breast cancer over time. The quantity and quality of DNA were quantified using a spectrophotometer (Nanodrop). Subsequently, this DNA was used to determine the recombination frequency of the P53 gene in the breasts of the different groups by Quantitative Polymerase Chain Reaction (qPCR). […]
For each sample, qPCR reactions against P53 and Tfrc were performed in parallel and in triplicate. […] The qPCR reactions and the reading of the signal were performed in the Mastercycler epgradient S Realplex2 thermal cycler from Eppendor. […]

How did the “apoptosis (percentage of apoptotic cells positive against caspase 3)” value ([1]; 3 days of post-lactational involution, vs untreated multiparous mice, P < 0.0001) turn out when C=CCN1C[C@H](C(=O)N(CCCN(C)C)C(=O)NCC)C[C@@H]2c3cccc4[nH]cc(c34)C[C@H]21 [cabergoline, 1-[(6-allylergolin-8ß-yl)-carbonyl]-1-[3-(dimethylamino)propyl]-3-ethylurea] was run?
The value was “significant increase in apoptosis”.

What about the “basal apoptosis of the epithelium (caspase 3)” value ([1]; 30 days post-weaning) of the same molecule?
Its value is “greater basal apoptosis of the epithelium”.

What about the “WT allele (proportion of WT cells) over time” value [2] of the same molecule?
Its value is “increase in WT cells was observed over time”.
